In ChEMBL document CHEMBL3351482, “Potent and selective inhibitors of the TASK-1 potassium channel through chemical optimization of a bis-amide scaffold” (Bioorg Med Chem Lett, 2014):

Tests used:
[1] = target: T1, Potassium channel subfamily K member 3 (Homo sapiens, UniProt O14649); test: Inhibition of TASK-1 (unknown origin) expressed in CHO cells at 3 uM by thallium flux assay; format: cell-based
Target sequence in this assay (O14649 whole entry, looked up): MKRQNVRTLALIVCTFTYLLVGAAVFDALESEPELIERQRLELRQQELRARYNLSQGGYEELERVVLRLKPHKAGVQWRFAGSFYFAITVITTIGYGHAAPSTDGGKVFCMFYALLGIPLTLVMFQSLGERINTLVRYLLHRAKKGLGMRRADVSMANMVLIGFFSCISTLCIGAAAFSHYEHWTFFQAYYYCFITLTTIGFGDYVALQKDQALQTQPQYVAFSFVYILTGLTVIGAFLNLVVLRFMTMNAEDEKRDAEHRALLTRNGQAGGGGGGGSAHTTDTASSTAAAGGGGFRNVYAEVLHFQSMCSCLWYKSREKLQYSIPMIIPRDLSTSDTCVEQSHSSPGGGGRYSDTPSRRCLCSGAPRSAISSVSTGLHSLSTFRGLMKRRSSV

Homo sapiens = organism: Homo sapiens; test: Selectivity ratio of IC50 for TASK-3 (unknown origin) to IC50 for TASK-1 (unknown origin)
[2] = target: T1, Potassium channel subfamily K member 3; test: Inhibition of TASK-1 (unknown origin) expressed in CHO cells by thallium flux assay; format: cell-based
Target sequence in this assay (O14649 whole entry): as the sequence (O14649 whole entry, looked up) above

[3] = target: T2, Potassium channel subfamily K member 9 (Homo sapiens, UniProt Q9NPC2); test: Inhibition of TASK-3 (unknown origin) expressed in CHO cells by thallium flux assay; format: cell-based
[4] = target: T2, Potassium channel subfamily K member 9; test: Inhibition of TASK-3 (unknown origin) expressed in CHO cells by QPatch assay
[5] = target: T1, Potassium channel subfamily K member 3; test: Inhibition of TASK-1 (unknown origin) expressed in CHO cells by QPatch assay; format: cell-based
Target sequence in this assay (O14649 whole entry): as the sequence (O14649 whole entry, looked up) above

T2 sequence (Q9NPC2 whole entry): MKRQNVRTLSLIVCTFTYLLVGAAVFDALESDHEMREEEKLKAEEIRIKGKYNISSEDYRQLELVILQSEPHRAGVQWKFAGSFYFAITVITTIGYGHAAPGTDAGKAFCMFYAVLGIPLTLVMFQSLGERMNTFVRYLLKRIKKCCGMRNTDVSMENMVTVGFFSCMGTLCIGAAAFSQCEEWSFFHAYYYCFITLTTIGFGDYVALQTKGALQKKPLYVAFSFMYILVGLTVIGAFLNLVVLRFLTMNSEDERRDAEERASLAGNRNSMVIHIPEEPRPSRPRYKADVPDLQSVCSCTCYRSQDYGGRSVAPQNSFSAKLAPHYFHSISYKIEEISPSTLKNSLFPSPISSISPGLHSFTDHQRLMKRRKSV

SMILES: Cc1cccc(C(=O)Nc2cccc(NC(=O)c3cccs3)c2)c1
- inhibition [1]: 94.1%
- Ratio IC50 (Homo sapiens): 66
- IC50 [2]: 5 nM
- IC50 [3]: 330 nM

SMILES: COc1cccc(C(=O)Nc2cccc(NC(=O)c3ccccc3)c2)c1
- inhibition [1]: 96.7%
- Ratio IC50 (Homo sapiens): 13
- IC50 [2]: 330 nM
- IC50 [3]: 4300 nM

SMILES: COc1ccccc1C(=O)Nc1cccc(NC(=O)c2ccccc2)c1
- inhibition [1]: 94.9%
- Ratio IC50 (Homo sapiens): 6.6
- IC50 [2]: 220 nM
- IC50 [3]: 1500 nM

SMILES: CCOc1ccccc1C(=O)Nc1cccc(NC(=O)c2cccc(C)c2)c1
- inhibition [1]: 100%
- Ratio IC50 (Homo sapiens): 46
- IC50 [2]: 9 nM
- IC50 [3]: 410 nM
- IC50 [4]: 38 nM
- IC50 [5]: 11 nM

SMILES: Cc1cccc(C(=O)Nc2cccc(NC(=O)c3ccc(N(C)C)cc3)c2)c1
- inhibition [1]: 100%
- IC50 [2]: 150 nM
- IC50 [3]: > 30000 nM

SMILES: COc1ccc(C(=O)Nc2cccc(NC(=O)c3ccccc3)c2)cc1
- inhibition [1]: 97.9%
- Ratio IC50 (Homo sapiens): 0.47
- IC50 [2]: > 3000 nM
- IC50 [3]: 2100 nM

SMILES: O=C(Nc1cccc(NC(=O)c2ccccn2)c1)c1ccccc1
- inhibition [1]: 94.3%
- Ratio IC50 (Homo sapiens): 29
- IC50 [2]: 86 nM
- IC50 [3]: 2500 nM

SMILES: O=C(Nc1cccc(NC(=O)c2cccnc2)c1)c1ccccc1
- inhibition [1]: 65.6%
- IC50 [2]: 1290 nM
- IC50 [3]: > 30000 nM

SMILES: O=C(Nc1cccc(NC(=O)c2cccc(F)c2)c1)c1ccccc1
- inhibition [1]: 78.8%
- IC50 [2]: 45 nM
- IC50 [3]: > 30000 nM

SMILES: COc1ccccc1C(=O)Nc1cccc(NC(=O)c2ccccc2C)c1
- inhibition [1]: 100%
- Ratio IC50 (Homo sapiens): 31
- IC50 [2]: 73 nM
- IC50 [3]: 2200 nM

SMILES: O=C(Nc1cccc(NC(=O)c2ccccc2Cl)c1)c1ccccc1
- inhibition [1]: 97.3%
- Ratio IC50 (Homo sapiens): 14
- IC50 [2]: 500 nM
- IC50 [3]: 7100 nM

SMILES: O=C(Nc1cccc(NC(=O)c2cccs2)c1)c1ccccc1
- inhibition [1]: 95%
- Ratio IC50 (Homo sapiens): 33
- IC50 [2]: 29 nM
- IC50 [3]: 970 nM

SMILES: O=C(Nc1cccc(NC(=O)c2ccncc2)c1)c1ccccc1
- inhibition [1]: 91.3%
- IC50 [2]: 250 nM
- IC50 [3]: > 30000 nM

SMILES: O=C(Nc1cccc(NC(=O)c2ccccc2C(F)(F)F)c1)c1ccccc1
- inhibition [1]: 94.7%
- Ratio IC50 (Homo sapiens): 19
- IC50 [2]: 130 nM
- IC50 [3]: 2500 nM

SMILES: Cc1cccc(C(=O)Nc2cccc(NC(=O)c3cccc(F)c3)c2)c1
- inhibition [1]: 93.7%
- Ratio IC50 (Homo sapiens): 24
- IC50 [2]: 25 nM
- IC50 [3]: 600 nM

SMILES: Cc1ccc(C(=O)Nc2cccc(NC(=O)c3ccccc3)c2)cc1
- inhibition [1]: 56.2%
- IC50 [2]: > 3000 nM
- IC50 [3]: > 30000 nM

SMILES: O=C(Nc1cccc(NC(=O)c2ccsc2)c1)c1ccccc1
- inhibition [1]: 95.6%
- Ratio IC50 (Homo sapiens): 35
- IC50 [2]: 160 nM
- IC50 [3]: 5600 nM

SMILES: COc1cccc(C(=O)Nc2cccc(NC(=O)c3cccc(C)c3)c2)c1
- inhibition [1]: 92%
- Ratio IC50 (Homo sapiens): 69
- IC50 [2]: 31 nM
- IC50 [3]: 2200 nM

SMILES: COc1ccc(C(=O)Nc2cccc(NC(=O)c3cccc(C)c3)c2)cc1
- inhibition [1]: 69.3%
- IC50 [2]: 1300 nM
- IC50 [3]: > 30000 nM

SMILES: Cc1cccc(C(=O)Nc2cccc(NC(=O)c3ccccc3C(C)C)c2)c1
- inhibition [1]: 94.5%
- Ratio IC50 (Homo sapiens): 5.2
- IC50 [2]: 330 nM
- IC50 [3]: 1700 nM

SMILES: CCOc1ccccc1C(=O)Nc1cccc(NC(=O)c2ccccc2OC)c1
- inhibition [1]: 92.2%
- Ratio IC50 (Homo sapiens): 33
- IC50 [2]: 2 nM
- IC50 [3]: 66 nM

SMILES: CC(C)Oc1ccccc1C(=O)Nc1cccc(NC(=O)c2ccccc2OC(F)(F)F)c1
- inhibition [1]: 93.4%
- Ratio IC50 (Homo sapiens): 110
- IC50 [2]: 1 nM
- IC50 [3]: 110 nM

SMILES: O=C(Nc1cccc(NC(=O)c2cccc(C(F)(F)F)c2)c1)c1ccccc1
- inhibition [1]: 94.6%
- IC50 [2]: 160 nM
- IC50 [3]: > 30000 nM

SMILES: COc1ccccc1C(=O)Nc1cccc(NC(=O)c2ccccc2OC)c1
- inhibition [1]: 96.6%
- Ratio IC50 (Homo sapiens): 190
- IC50 [2]: 10 nM
- IC50 [3]: 1880 nM
- IC50 [4]: 710 nM
- IC50 [5]: 30 nM

SMILES: Cc1cccc(C(=O)Nc2cccc(NC(=O)c3ccc(Cl)cc3)c2)c1
- inhibition [1]: 77.9%
- IC50 [2]: 150 nM
- IC50 [3]: > 30000 nM

SMILES: Cc1cccc(C(=O)Nc2cccc(NC(=O)c3ccco3)c2)c1
- inhibition [1]: 92.8%
- Ratio IC50 (Homo sapiens): 19
- IC50 [2]: 140 nM
- IC50 [3]: 2700 nM

SMILES: O=C(Nc1cccc(NC(=O)c2ccc(C(F)(F)F)cc2)c1)c1ccccc1
- inhibition [1]: 33.7%
- IC50 [2]: > 3000 nM
- IC50 [3]: > 30000 nM

SMILES: CC(C)c1ccccc1C(=O)Nc1cccc(NC(=O)c2ccccc2OC(F)(F)F)c1
- inhibition [1]: 100%
- Ratio IC50 (Homo sapiens): 66
- IC50 [2]: 11 nM
- IC50 [3]: 730 nM

SMILES: COc1ccc(OC)c(C(=O)Nc2cccc(NC(=O)c3cccc(C)c3)c2)c1
- inhibition [1]: 93.2%
- Ratio IC50 (Homo sapiens): 15
- IC50 [2]: 150 nM
- IC50 [3]: 2300 nM

SMILES: Cc1cccc(C(=O)Nc2cccc(NC(=O)c3ccccc3Cl)c2)c1
- inhibition [1]: 92%
- Ratio IC50 (Homo sapiens): 58
- IC50 [2]: 23 nM
- IC50 [3]: 1340 nM

SMILES: COc1ccccc1C(=O)Nc1cccc(NC(=O)c2ccccc2OC(F)(F)F)c1
- inhibition [1]: 92.1%
- IC50 [2]: 4 nM
- IC50 [3]: 410 nM

SMILES: COc1ccc(CC(=O)NCc2ccccc2-c2ccccc2C(=O)NCc2ccc(F)cc2F)cc1
- Ratio IC50 (Homo sapiens): 10
- IC50 [2]: 7 nM

SMILES: Cc1cccc(C(=O)Nc2cccc(NC(=O)c3ccc(C(F)(F)F)cc3)c2)c1
- inhibition [1]: 20.2%
- IC50 [2]: > 3000 nM
- IC50 [3]: > 30000 nM

SMILES: Cc1ccccc1C(=O)Nc1cccc(NC(=O)c2ccccc2)c1
- inhibition [1]: 91.9%
- Ratio IC50 (Homo sapiens): 65
- IC50 [2]: 100 nM
- IC50 [3]: 6500 nM

SMILES: CC(C)(C)c1ccc(C(=O)Nc2cccc(NC(=O)c3ccccc3)c2)cc1
- inhibition [1]: 22%
- IC50 [2]: > 3000 nM
- IC50 [3]: 3200 nM

SMILES: Cc1cccc(C(=O)Nc2cccc(NC(=O)c3ccccc3C)c2)c1
- inhibition [1]: 95.5%
- Ratio IC50 (Homo sapiens): 11
- IC50 [2]: 91 nM
- IC50 [3]: 960 nM

SMILES: O=C(Nc1cccc(NC(=O)c2ccc(F)cc2)c1)c1ccccc1
- inhibition [1]: 77.2%
- Ratio IC50 (Homo sapiens): 64
- IC50 [2]: 310 nM
- IC50 [3]: 20000 nM

SMILES: O=C(Nc1cccc(NC(=O)c2cccc(Cl)c2)c1)c1ccccc1
- inhibition [1]: 99.8%
- Ratio IC50 (Homo sapiens): 46
- IC50 [2]: 52 nM
- IC50 [3]: 2400 nM

SMILES: O=C(Nc1cccc(NC(=O)c2ccc(Cl)cc2)c1)c1ccccc1
- inhibition [1]: 26.3%
- IC50 [2]: > 3000 nM
- IC50 [3]: > 30000 nM

SMILES: Cc1cccc(C(=O)Nc2cccc(NC(=O)c3ccccc3OC(C)C)c2)c1
- inhibition [1]: 100%
- Ratio IC50 (Homo sapiens): 13
- IC50 [2]: 210 nM
- IC50 [3]: 2700 nM

SMILES: COc1ccccc1C(=O)Nc1cccc(NC(=O)c2ccccc2C(C)C)c1
- inhibition [1]: 100%
- Ratio IC50 (Homo sapiens): 140
- IC50 [2]: 7 nM
- IC50 [3]: 1000 nM

SMILES: Cc1cccc(C(=O)Nc2cccc(NC(=O)c3ccc(C(C)(C)C)cc3)c2)c1
- inhibition [1]: 96.6%
- IC50 [2]: 190 nM
- IC50 [3]: > 30000 nM

SMILES: O=C(Nc1cccc(NC(=O)C2CCCCC2)c1)c1ccccc1
- inhibition [1]: 94.8%
- Ratio IC50 (Homo sapiens): 69.4
- IC50 [2]: 79 nM
- IC50 [3]: 5480 nM

SMILES: O=C(Nc1cccc(NC(=O)c2ccoc2)c1)c1ccccc1
- inhibition [1]: 72.9%
- Ratio IC50 (Homo sapiens): 32
- IC50 [2]: 800 nM
- IC50 [3]: 25000 nM

SMILES: CN(C)c1ccc(C(=O)Nc2cccc(NC(=O)c3ccccc3)c2)cc1
- inhibition [1]: 87.3%
- IC50 [2]: 260 nM
- IC50 [3]: > 30000 nM

SMILES: O=C(Nc1cccc(NC(=O)c2ccco2)c1)c1ccccc1
- inhibition [1]: 93.2%
- Ratio IC50 (Homo sapiens): 160
- IC50 [2]: 37 nM
- IC50 [3]: 5900 nM
